Source: patent US20240270821A1, “GIP/GLP1/GCG TRI-RECEPTOR AGONISTS AND USES THEREOF” (priority 2023, published 2024)
Like-named read-outs stand apart in the source and are kept apart here. Starred links: 1 amine or outer side, 2 acyl side, 3 side chain; linkers in the order of their positions; H or OH if unused. Non-standard residues stand in square brackets, D forms with d. Groups on a side chain read outwards from the residue. No end group written: not given here. *: point of attachment. C20 diacid = O=C(O)CCCCCCCCCCCCCCCCCCC(=O)*; C18 diacid = O=C(O)CCCCCCCCCCCCCCCCC(=O)*; Phe(4-CN) = N#Cc1ccc(C[C@H](N)C(=O)O)cc1; αMePhe(2-F) = C[C@](N)(Cc1ccccc1F)C(=O)O; γGlu = O=C(O)[C@H](CCC(=O)[*:2])N[*:1]; αMe4Pal = C[C@](N)(Cc1ccncc1)C(=O)O; αMeY = C[C@](N)(Cc1ccc(O)cc1)C(=O)O; 4Pal = N[C@@H](Cc1ccncc1)C(=O)O; αMeL = CC(C)C[C@](C)(N)C(=O)O; αMeS = C[C@](N)(CO)C(=O)O; Orn = NCCC[C@H](N)C(=O)O; AEEA = NCCOCCOCC(=O)O; Aib = CC(C)(N)C(=O)O

What was measured:
Type in all cases: cell-based
hGIPR [1] = target: T1, hGIPR (Homo sapiens, UniProt P48546); experiment: Functional cAMP activity in the presence of 1% HSA; settings: read-out: cAMP Rel EC50, hGIPR
T1 sequence (P48546 22-466): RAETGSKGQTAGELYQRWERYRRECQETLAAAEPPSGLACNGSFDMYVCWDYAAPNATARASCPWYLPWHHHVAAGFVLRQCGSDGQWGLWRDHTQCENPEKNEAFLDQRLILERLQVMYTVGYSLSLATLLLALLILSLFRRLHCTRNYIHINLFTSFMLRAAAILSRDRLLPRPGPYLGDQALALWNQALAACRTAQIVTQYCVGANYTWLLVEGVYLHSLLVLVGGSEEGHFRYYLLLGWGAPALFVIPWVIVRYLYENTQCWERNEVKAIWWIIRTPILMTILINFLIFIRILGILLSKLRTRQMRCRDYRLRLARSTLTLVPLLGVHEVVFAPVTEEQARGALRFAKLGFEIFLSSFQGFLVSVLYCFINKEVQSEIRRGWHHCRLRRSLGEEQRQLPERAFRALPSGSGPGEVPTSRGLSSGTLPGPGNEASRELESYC

hGcgR = hGcgR (Homo sapiens, UniProt P47871); experiment: Functional cAMP activation in the presence of 0.1% casein (no HSA); settings: read-out: Relative cAMP EC50, hGcgR;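 also: intracellular cAMP rise after 30 min at 37 °C, read by HTRF against a cAMP standard curve, scaled from buffer only (0%) to maximal control ligand response (100%)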
Chain of hGcgR (P47871 26-477): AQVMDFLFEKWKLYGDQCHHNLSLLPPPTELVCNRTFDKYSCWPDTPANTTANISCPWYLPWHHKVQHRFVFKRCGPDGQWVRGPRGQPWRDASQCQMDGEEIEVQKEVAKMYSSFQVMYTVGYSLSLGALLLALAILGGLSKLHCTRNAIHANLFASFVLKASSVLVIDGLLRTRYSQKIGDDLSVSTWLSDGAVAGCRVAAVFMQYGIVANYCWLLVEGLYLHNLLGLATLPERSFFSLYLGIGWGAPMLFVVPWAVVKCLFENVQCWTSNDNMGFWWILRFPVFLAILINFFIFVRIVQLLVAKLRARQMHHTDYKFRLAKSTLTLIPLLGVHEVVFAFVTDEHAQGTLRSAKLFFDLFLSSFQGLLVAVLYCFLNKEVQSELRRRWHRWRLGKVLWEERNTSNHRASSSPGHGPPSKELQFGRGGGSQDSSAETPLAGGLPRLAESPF

human GcgR = human GcgR (Homo sapiens, UniProt P47871); experiment: Functional cAMP activity in the presence of 1% HSA; settings: read-out: cAMP Rel EC50, hGcgR
Chain of human GcgR (P47871 26-477): as above

hGLP-1R [2] = target: T2, hGLP-1R (Homo sapiens, UniProt P43220); experiment: Functional cAMP activation in the presence of 0.1% casein (no HSA); settings: read-out: Relative cAMP EC50, hGLP-1R;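 also: intracellular cAMP rise after 30 min at 37 °C read by HTRF, normalized between buffer only (0%) and maximal control ligand (100%), four-parameter variable-slope fit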
T2 sequence (P43220 24-463): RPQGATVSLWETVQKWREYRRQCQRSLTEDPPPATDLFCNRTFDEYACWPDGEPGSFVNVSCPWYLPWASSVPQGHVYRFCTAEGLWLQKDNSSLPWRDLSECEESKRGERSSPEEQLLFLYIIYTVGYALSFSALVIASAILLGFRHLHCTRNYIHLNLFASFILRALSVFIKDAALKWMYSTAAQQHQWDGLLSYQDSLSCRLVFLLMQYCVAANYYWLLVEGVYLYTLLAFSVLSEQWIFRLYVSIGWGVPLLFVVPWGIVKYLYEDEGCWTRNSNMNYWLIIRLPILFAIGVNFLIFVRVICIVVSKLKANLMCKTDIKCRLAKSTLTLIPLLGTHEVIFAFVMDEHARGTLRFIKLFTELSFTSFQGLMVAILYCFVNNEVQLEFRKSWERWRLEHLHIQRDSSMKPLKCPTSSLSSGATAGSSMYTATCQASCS

hGLP-1R [3] = target: T2, hGLP-1R; experiment: Functional cAMP activity in the presence of 1% HSA; settings: read-out: cAMP Rel EC50, hGLP-1R
hGIPR [4] = target: T1, hGIPR; experiment: Functional cAMP activation in the presence of 0.1% casein (no HSA); settings: read-out: Relative cAMP EC50, hGIPR;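 also: intracellular cAMP rise after 30 min at 37 °C read by HTRF against a standard curve, scaled between buffer alone (0%) and top control ligand concentration (100%), four-parameter fit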
[5] = in the presence of 0.1% casein (no HSA), geometric mean

H-Y[Aib]QGTFTSD[4Pal]S[Orn][αMeL]LDKK([AEEA-γGlu-C18 diacid])AQ[αMe4Pal]AFIE[αMe4Pal]LIEGGPSSGAPPPSGS-NH2 [Example 949]
EC50 (hGIPR [1]): 26 nM
EC50 (hGcgR; [5]): 1.62 nM
EC50 (human GcgR): 317 nM
EC50 (hGLP-1R [2]; [5]): 3.37 nM
EC50 (hGLP-1R [3]): 721 nM
EC50 (hGIPR [4]; [5]): 0.203 nM

H-Y[Aib]QGT[αMePhe(2-F)]TSD[4Pal][αMeS]I[αMeL]LD[Orn]K([AEEA-γGlu-γGlu-C18 diacid])AQ[αMe4Pal]EFI[dE][αMeY]LIEGGPSSGEPPPSGGGE-NH2 [Example 1181]
EC50 (hGIPR [1]): 0.666 nM
EC50 (hGcgR; [5]): 3.34 nM
EC50 (human GcgR): 203 nM
EC50 (hGLP-1R [2]; [5]): 0.664 nM
EC50 (hGLP-1R [3]): 48.2 nM
EC50 (hGIPR [4]; [5]): 0.0115 nM

H-Y[Aib]QGTFTSD[4Pal]S[Orn][αMeL]LD[Orn]K([γGlu-γGlu-C18 diacid])AQ[αMe4Pal][Orn]FIEYLLAGGPSSGAPPPSGSEE-NH2 [Example 1004]
EC50 (hGIPR [1]): 35.4 nM
EC50 (hGcgR; [5]): 2.67 nM
EC50 (human GcgR): 237 nM
EC50 (hGLP-1R [2]; [5]): 9.34 nM
EC50 (hGLP-1R [3]): 973 nM
EC50 (hGIPR [4]; [5]): 0.519 nM

H-Y[Aib]QGTFTSD[4Pal]SQ[αMeL]LDKK([γGlu-γGlu-C18 diacid])AQ[αMe4Pal]AFIE[αMe4Pal]LIE[Aib]GPSSGAPPPSGE-NH2 [Example 1120]
EC50 (hGIPR [1]): 9.21 nM
EC50 (hGcgR; [5]): 5.17 nM
EC50 (human GcgR): 291 nM
EC50 (hGLP-1R [2]; [5]): 4.5 nM
EC50 (hGLP-1R [3]): 171 nM
EC50 (hGIPR [4]; [5]): 0.096 nM

Y[Aib]QGTFTSD[4Pal]SQ[αMeL]LD[Orn]K([AEEA-γGlu-γGlu-C18 diacid])AQ[αMe4Pal]AFIEYLIE[dA]GPSSGAPPPSGS-NH2 [Example 1016]
EC50 (hGIPR [1]): 30.6 nM
EC50 (hGcgR; [5]): 5.57 nM
EC50 (human GcgR): 626 nM
EC50 (hGLP-1R [2]; [5]): 1.55 nM
EC50 (hGLP-1R [3]): 156 nM
EC50 (hGIPR [4]; [5]): 0.218 nM

H-Y[Aib]QGT[αMePhe(2-F)]TSD[4Pal]SI[αMeL]LD[Orn]K([γGlu-γGlu-C18 diacid])AQ[αMe4Pal][Orn]FI[dE][αMeY]LIEGGPSSGEPPPEGTGE-NH2 [Example 688]
EC50 (hGIPR [1]): 0.61 nM
EC50 (hGcgR): 2.06 nM
EC50 (human GcgR): 182 nM
EC50 (hGLP-1R [2]): 0.304 nM
EC50 (hGLP-1R [3]): 19.5 nM
EC50 (hGIPR [4]): 0.00881 nM

H-Y[Aib]QGTFTSD[4Pal]SQ[αMeL]LDKK([AEEA-γGlu-C18 diacid])AQ[αMe4Pal]QFIE[αMeY]LIEGGPSSGAPPPSGS-NH2 [Example 855]
EC50 (hGIPR [1]): 46.1 nM
EC50 (hGcgR; [5]): 2.67 nM
EC50 (human GcgR): 1030 nM
EC50 (hGLP-1R [2]; [5]): 0.908 nM
EC50 (hGLP-1R [3]): 207 nM
EC50 (hGIPR [4]; [5]): 0.271 nM

H-Y[Aib]QGTFTSDYSI[αMeL]LDKIAAK([AEEA-AEEA-γGlu-C20 diacid])QFVEWLLA[Aib]GPSSGEPPPSEG-NH2 [Example 324]
EC50 (hGIPR [1]): 20.7 nM
EC50 (hGcgR; [5]): 5.74 nM
EC50 (human GcgR): 1410 nM
EC50 (hGLP-1R [2]; [5]): 4.4 nM
EC50 (hGLP-1R [3]): 1060 nM
EC50 (hGIPR [4]; [5]): 0.164 nM

Y[Aib]QGTFTSD[4Pal]SQ[αMeL]LDKK([γGlu-γGlu-C18 diacid])AQ[αMe4Pal]AFIE[αMe4Pal]LIE[Aib]GPSSGAPPPSGTE-NH2 [Example 1118]
EC50 (hGIPR [1]): 5.45 nM
EC50 (hGcgR; [5]): 6.52 nM
EC50 (human GcgR): 802 nM
EC50 (hGLP-1R [2]; [5]): 5.42 nM
EC50 (hGLP-1R [3]): 183 nM
EC50 (hGIPR [4]; [5]): 0.128 nM

H-Y[Aib]QGT[αMePhe(2-F)]TSD[4Pal][αMeS]I[αMeL]LD[Orn]K([AEEA-γGlu-C18 diacid])AA[Aib]EFI[dE][αMeY]LIEGGPSSGAPPPSGQ-OH [Example 722]
EC50 (hGIPR [1]): 0.953 nM
EC50 (hGcgR): 1.71 nM
EC50 (human GcgR): 170 nM
EC50 (hGLP-1R [2]): 0.252 nM
EC50 (hGLP-1R [3]): 27.2 nM
EC50 (hGIPR [4]): 0.01 nM

H-Y[Aib]QGT[αMePhe(2-F)]TSD[4Pal][αMeS]I[αMeL]LD[Orn]K([γGlu-γGlu-C18 diacid])AQ[αMe4Pal]EFI[dE][αMeY]LIEGGPSSGEPPPSGS-NH2 [Example 715]
EC50 (hGIPR [1]): 0.51 nM
EC50 (hGcgR): 1 nM
EC50 (human GcgR): 126 nM
EC50 (hGLP-1R [2]): 0.267 nM
EC50 (hGLP-1R [3]): 19.7 nM
EC50 (hGIPR [4]): 0.00644 nM

H-Y[Aib]QGT[αMePhe(2-F)]TSDYSILLDKQAAK([AEEA-AEEA-γGlu-C20 diacid])EFIEYLIEGGPSSGEPPPSEG-NH2 [Example 348]
EC50 (hGIPR [1]): 36.4 nM
EC50 (hGcgR; [5]): 3.9 nM
EC50 (human GcgR): 1250 nM
EC50 (hGLP-1R [2]; [5]): 0.346 nM
EC50 (hGLP-1R [3]): 136 nM
EC50 (hGIPR [4]; [5]): 0.127 nM

H-Y[Aib]QGTFTSD[4Pal]SQ[αMeL]LDKK([γGlu-γGlu-C18 diacid])AQ[αMe4Pal]AFIEYLIE[Aib]GPSSGAPPPSGTE-NH2 [Example 1126]
EC50 (hGIPR [1]): 13.5 nM
EC50 (hGcgR; [5]): 3.92 nM
EC50 (human GcgR): 452 nM
EC50 (hGLP-1R [2]; [5]): 4.56 nM
EC50 (hGLP-1R [3]): 208 nM
EC50 (hGIPR [4]; [5]): 0.174 nM

H-Y[Aib]QGTFTSDYSI[αMeL]LDKQAAK([AEEA-AEEA-γGlu-C20 diacid])QFVEWLIA[Aib]GPSSGEPPPSEG-NH2 [Example 326]
EC50 (hGIPR [1]): 83.7 nM
EC50 (hGcgR; [5]): 5.34 nM
EC50 (human GcgR): 1500 nM
EC50 (hGLP-1R [2]; [5]): 0.555 nM
EC50 (hGLP-1R [3]): 172 nM
EC50 (hGIPR [4]; [5]): 0.3 nM

H-Y[Aib]QGTFTSD[4Pal]SQ[αMeL]LDKK([AEEA-γGlu-C18 diacid])AQ[αMe4Pal]AFIEYLIE[Aib]GPSSGAPPPSGT-NH2 [Example 834]
EC50 (hGIPR [1]): 15.7 nM
EC50 (hGcgR; [5]): 3.36 nM
EC50 (human GcgR): 533 nM
EC50 (hGLP-1R [2]; [5]): 2.64 nM
EC50 (hGLP-1R [3]): 208 nM
EC50 (hGIPR [4]; [5]): 0.094 nM

H-Y[Aib]QGTFTSD[4Pal]SQ[αMeL]LDKK([AEEA-γGlu-γGlu-C18 diacid])AQ[αMe4Pal]AFIEYLIAGGPSSGEPPPSGS-NH2 [Example 947]
EC50 (hGIPR [1]): 16.6 nM
EC50 (hGcgR; [5]): 6.99 nM
EC50 (human GcgR): 727 nM
EC50 (hGLP-1R [2]; [5]): 1.7 nM
EC50 (hGLP-1R [3]): 150 nM
EC50 (hGIPR [4]; [5]): 0.289 nM

H-Y[Aib]QGTFTSD[Phe(4-CN)]S[Orn][αMeL]LDKK([AEEA-γGlu-C18 diacid])AQ[Aib]AFIEYLLE[Aib]GHSSGAPPPSGS-NH2 [Example 190]
EC50 (hGIPR [1]): 59.4 nM
EC50 (hGcgR; [5]): 2.95 nM
EC50 (human GcgR): 331 nM
EC50 (hGLP-1R [2]; [5]): 1.41 nM
EC50 (hGLP-1R [3]): 172 nM
EC50 (hGIPR [4]; [5]): 0.306 nM

H-Y[Aib]QGTFTSDFSK[αMeL]LDKK([AEEA-γGlu-C20 diacid])AQ[Aib]AFIEYLLAGGPSSGEPPPGGS-NH2 [Example 9]
EC50 (hGIPR [1]): 41.8 nM
EC50 (hGcgR; [5]): 7.19 nM
EC50 (human GcgR): 1430 nM
EC50 (hGLP-1R [2]; [5]): 1.61 nM
EC50 (hGLP-1R [3]): 402 nM
EC50 (hGIPR [4]; [5]): 0.205 nM

H-Y[Aib]QGTFTSDFS[Orn][αMeL]LDKK([AEEA-γGlu-C20 diacid])AQ[Aib]AFIEWLLAGGPSSGEPPPSGE-NH2 [Example 103]
EC50 (hGIPR [1]): 35.1 nM
EC50 (hGcgR; [5]): 10.5 nM
EC50 (human GcgR): 2590 nM
EC50 (hGLP-1R [2]; [5]): 3.27 nM
EC50 (hGLP-1R [3]): 482 nM
EC50 (hGIPR [4]; [5]): 0.2 nM

H-Y[Aib]QGTFTSD[4Pal]S[Orn][αMeL]LD[Orn]K([γGlu-γGlu-C18 diacid])AQ[Aib]AFIE[αMeY]LLEGGPSSGAPPPSGSEE-NH2 [Example 1064]
EC50 (hGIPR [1]): 62.5 nM
EC50 (hGcgR; [5]): 13.7 nM
EC50 (human GcgR): 1940 nM
EC50 (hGLP-1R [2]; [5]): 7.89 nM
EC50 (hGLP-1R [3]): 912 nM
EC50 (hGIPR [4]; [5]): 0.556 nM
